{
  "source": "patent US20240132484A1",
  "about": "“BROAD SPECTRUM ANTIVIRAL COMPOUNDS TARGETING THE SKI COMPLEX” (priority 2020, published 2024)",
  "key": {"SARS2": {"test_system": "SARS2", "type": "cell-based, SARS-CoV-2", "details": "for Percentage Infection Relative to Appropriate DMSO Control with Avg Background Subtraction: single well; for Percentage Inhibition Average 1 μM / Screening data (Relative infection to DMSO controls) Average 1 μM: SARS2, 1 μM; for Screening data (Relative infection to DMSO controls) Average 1 μM / Screening data (Relative infection to DMSO controls) Average 5 μM / Screening data (Relative infection to DMSO controls) Average 10 μM / Screening data (Relative infection to DMSO controls) Average 25 μM / Screening data (Relative infection to DMSO controls) Average 50 μM / Average (relative infection to DMSO over the 5 tested concentrations): 100=DMSO control; for Percentage Inhibition Average 5 μM / Screening data (Relative infection to DMSO controls) Average 5 μM: SARS2, 5 μM; for Percentage Inhibition Average 10 μM / Screening data (Relative infection to DMSO controls) Average 10 μM: SARS2, 10 μM; for Percentage Inhibition Average 25 μM / Screening data (Relative infection to DMSO controls) Average 25 μM: SARS2, 25 μM; for Percentage Inhibition Average 50 μM / Screening data (Relative infection to DMSO controls) Average 50 μM: SARS2, 50 μM; for Average (relative infection to DMSO over the 5 tested concentrations): SARS2, average over 1 to 50 uM"}, "cells (nuclei count)": {"test_system": "cells (nuclei count)", "details": "for Relative cell count to DMSO controls, Average 1 μM / Relative cell count to DMSO controls, Average 5 μM / Relative cell count to DMSO controls, Average 10 μM / Relative cell count to DMSO controls, Average 25 μM / Relative cell count to DMSO controls, Average 50 μM: toxicity data, 100=DMSO control; for Relative cell count to DMSO controls, Average (for correlation analysis): average value over the 5 tested concentrations (1 to 50 uM)"}},
  "note": "Values joined by “and” are separate entries in the source; they are usually repeats but may differ in a detail not shown here. Equal entries are not always repeated. Where two headings read alike, the source gives them in different places.",
  "data": [
    {"smiles": "Cc1cc(CN(CCN(C)C)Cc2ccsc2)oc1C", "note": "[SILCS27]", "values": [
      {"measurement": "Infection Data, Average, Mean", "setting": "SARS2; Average of Exp 1-3, n 9, 1 uM", "result": 101.69, "unit": "%"},
      {"measurement": "Infection Data, Average, Mean", "setting": "SARS2; Average of Exp 1-3, n 9, 5 uM", "result": 91.50, "unit": "%"},
      {"measurement": "Infection Data, Average, Mean", "setting": "SARS2; Average of Exp 1-3, n 9, 10 uM", "result": 93.59, "unit": "%"},
      {"measurement": "Infection Data, Average, Mean", "setting": "SARS2; Average of Exp 1-3, n 9, 25 uM", "result": 67.45, "unit": "%"},
      {"measurement": "Infection Data, Average, Mean", "setting": "SARS2; Average of Exp 1-3, n 9, 50 uM", "result": 20.11, "unit": "%"},
      {"measurement": "Percentage Infection Relative to Appropriate DMSO Control with Avg Background Subtraction", "setting": "SARS2; Exp 1 (SMW475), 1 uM", "result": "107.33% and 128.47% and 95.32%"},
      {"measurement": "Percentage Infection Relative to Appropriate DMSO Control with Avg Background Subtraction", "setting": "SARS2; Exp 1 (SMW475), 5 uM", "result": "113.52% and 118.94% and 106.69%"},
      {"measurement": "Percentage Infection Relative to Appropriate DMSO Control with Avg Background Subtraction", "setting": "SARS2; Exp 1 (SMW475), 10 uM", "result": "137.00% and 134.73% and 122.43%"},
      {"measurement": "Percentage Infection Relative to Appropriate DMSO Control with Avg Background Subtraction", "setting": "SARS2; Exp 1 (SMW475), 25 uM", "result": "63.59% and 56.84% and 58.04%"},
      {"measurement": "Percentage Infection Relative to Appropriate DMSO Control with Avg Background Subtraction", "setting": "SARS2; Exp 1 (SMW475), 50 uM", "result": "15.03% and 16.97% and 13.28%"},
      {"measurement": "Percentage Infection Relative to Appropriate DMSO Control with Avg Background Subtraction", "setting": "SARS2; Exp 2 (SMW477), 1 uM", "result": "100.41% and 105.41% and 110.54%"},
      {"measurement": "Percentage Infection Relative to Appropriate DMSO Control with Avg Background Subtraction", "setting": "SARS2; Exp 2 (SMW477), 5 uM", "result": "92.70% and 91.91% and 94.77%"},
      {"measurement": "Percentage Infection Relative to Appropriate DMSO Control with Avg Background Subtraction", "setting": "SARS2; Exp 2 (SMW477), 10 uM", "result": "76.80% and 77.09% and 89.00%"},
      {"measurement": "Percentage Infection Relative to Appropriate DMSO Control with Avg Background Subtraction", "setting": "SARS2; Exp 2 (SMW477), 25 uM", "result": "62.89% and 48.77% and 73.05%"},
      {"measurement": "Percentage Infection Relative to Appropriate DMSO Control with Avg Background Subtraction", "setting": "SARS2; Exp 2 (SMW477), 50 uM", "result": "26.32% and 19.89% and 21.80%"},
      {"measurement": "Percentage Infection Relative to Appropriate DMSO Control with Avg Background Subtraction", "setting": "SARS2; Exp 3 (SMW478), 1 uM", "result": "87.75% and 89.34% and 90.68%"},
      {"measurement": "Percentage Infection Relative to Appropriate DMSO Control with Avg Background Subtraction", "setting": "SARS2; Exp 3 (SMW478), 5 uM", "result": "79.11% and 61.06% and 64.83%"},
      {"measurement": "Percentage Infection Relative to Appropriate DMSO Control with Avg Background Subtraction", "setting": "SARS2; Exp 3 (SMW478), 10 uM", "result": "89.71% and 51.99% and 63.55%"},
      {"measurement": "Percentage Infection Relative to Appropriate DMSO Control with Avg Background Subtraction", "setting": "SARS2; Exp 3 (SMW478), 25 uM", "result": "80.23% and 76.86% and 86.74%"},
      {"measurement": "Percentage Infection Relative to Appropriate DMSO Control with Avg Background Subtraction", "setting": "SARS2; Exp 3 (SMW478), 50 uM", "result": "18.61% and 22.87% and 26.23%"},
      {"measurement": "Percentage Inhibition Average 1 μM", "setting": "SARS2", "result": "−1.69", "unit": "%"},
      {"measurement": "Screening data (Relative infection to DMSO controls) Average 1 μM", "setting": "SARS2", "result": 101.69},
      {"measurement": "Percentage Inhibition Average 5 μM", "setting": "SARS2", "result": 8.50, "unit": "%"},
      {"measurement": "Screening data (Relative infection to DMSO controls) Average 5 μM", "setting": "SARS2", "result": 91.50},
      {"measurement": "Percentage Inhibition Average 10 μM", "setting": "SARS2", "result": 6.41, "unit": "%"},
      {"measurement": "Screening data (Relative infection to DMSO controls) Average 10 μM", "setting": "SARS2", "result": 93.59},
      {"measurement": "Percentage Inhibition Average 25 μM", "setting": "SARS2", "result": 32.55, "unit": "%"},
      {"measurement": "Screening data (Relative infection to DMSO controls) Average 25 μM", "setting": "SARS2", "result": 67.45},
      {"measurement": "Percentage Inhibition Average 50 μM", "setting": "SARS2", "result": 79.89, "unit": "%"},
      {"measurement": "Screening data (Relative infection to DMSO controls) Average 50 μM", "setting": "SARS2", "result": 20.11},
      {"measurement": "Average (relative infection to DMSO over the 5 tested concentrations)", "setting": "SARS2", "result": 74.87},
      {"measurement": "Relative cell count to DMSO controls, Average 1 μM", "setting": "cells (nuclei count)", "result": 109.07},
      {"measurement": "Relative cell count to DMSO controls, Average 5 μM", "setting": "cells (nuclei count)", "result": 120.66},
      {"measurement": "Relative cell count to DMSO controls, Average 10 μM", "setting": "cells (nuclei count)", "result": 120.18},
      {"measurement": "Relative cell count to DMSO controls, Average 25 μM", "setting": "cells (nuclei count)", "result": 103.23},
      {"measurement": "Relative cell count to DMSO controls, Average 50 μM", "setting": "cells (nuclei count)", "result": 86.33},
      {"measurement": "Toxicity Data, Average, Mean", "setting": "cells (nuclei count); Average of Exp 1-3, n 9, 1 uM", "result": 109.07, "unit": "%"},
      {"measurement": "Toxicity Data, Average, Mean", "setting": "cells (nuclei count); Average of Exp 1-3, n 9, 5 uM", "result": 120.66, "unit": "%"},
      {"measurement": "Toxicity Data, Average, Mean", "setting": "cells (nuclei count); Average of Exp 1-3, n 9, 10 uM", "result": 120.18, "unit": "%"},
      {"measurement": "Toxicity Data, Average, Mean", "setting": "cells (nuclei count); Average of Exp 1-3, n 9, 25 uM", "result": 103.23, "unit": "%"},
      {"measurement": "Toxicity Data, Average, Mean", "setting": "cells (nuclei count); Average of Exp 1-3, n 9, 50 uM", "result": 86.33, "unit": "%"},
      {"measurement": "Relative cell count to DMSO controls, Average (for correlation analysis)", "setting": "cells (nuclei count)", "result": 107.89}
    ]},
    {"smiles": "COCC1=C(C(=O)NCC2CCC2)C(c2cccs2)NC(=O)N1", "note": "(centres unmarked) [SILCS56]", "values": [
      {"measurement": "Percentage Inhibition Average 1 μM", "setting": "SARS2", "result": 31.59, "unit": "%"},
      {"measurement": "Screening data (Relative infection to DMSO controls) Average 1 μM", "setting": "SARS2", "result": 68.41},
      {"measurement": "Percentage Inhibition Average 5 μM", "setting": "SARS2", "result": 44.15, "unit": "%"},
      {"measurement": "Screening data (Relative infection to DMSO controls) Average 5 μM", "setting": "SARS2", "result": 55.85},
      {"measurement": "Percentage Inhibition Average 10 μM", "setting": "SARS2", "result": 29.24, "unit": "%"},
      {"measurement": "Screening data (Relative infection to DMSO controls) Average 10 μM", "setting": "SARS2", "result": 70.76},
      {"measurement": "Percentage Inhibition Average 25 μM", "setting": "SARS2", "result": 2.27, "unit": "%"},
      {"measurement": "Screening data (Relative infection to DMSO controls) Average 25 μM", "setting": "SARS2", "result": 97.73},
      {"measurement": "Percentage Inhibition Average 50 μM", "setting": "SARS2", "result": "−21.04", "unit": "%"},
      {"measurement": "Screening data (Relative infection to DMSO controls) Average 50 μM", "setting": "SARS2", "result": 121.04},
      {"measurement": "Average (relative infection to DMSO over the 5 tested concentrations)", "setting": "SARS2", "result": 82.76},
      {"measurement": "Relative cell count to DMSO controls, Average 1 μM", "setting": "cells (nuclei count)", "result": 120.34},
      {"measurement": "Relative cell count to DMSO controls, Average 5 μM", "setting": "cells (nuclei count)", "result": 119.22},
      {"measurement": "Relative cell count to DMSO controls, Average 10 μM", "setting": "cells (nuclei count)", "result": 119.65},
      {"measurement": "Relative cell count to DMSO controls, Average 25 μM", "setting": "cells (nuclei count)", "result": 104.41},
      {"measurement": "Relative cell count to DMSO controls, Average 50 μM", "setting": "cells (nuclei count)", "result": 89.59},
      {"measurement": "Relative cell count to DMSO controls, Average (for correlation analysis)", "setting": "cells (nuclei count)", "result": 110.64}
    ]}
  ]
}
